Key:
Assay type in all cases: binding
Details in all cases: Compound Concentration 10 µM
[1] = target: T1, panel of 442 kinases (Homo sapiens, UniProt O75914)
T1 construct: purchased KINOMEscan
Text: (§1) We assessed the selectivity of members of this scaffold using the KINOMEscan methodology across a near comprehensive panel of 442 kinases [[18,27]].

[2] = target: T2, panel of 442 kinases (Homo sapiens, UniProt P36507)
T2 construct: purchased KINOMEscan
Text: as §1

[3] = target: T3, panel of 442 kinases (Homo sapiens, UniProt O14757)
T3 construct: purchased KINOMEscan
T3 sequence (O14757 1-476): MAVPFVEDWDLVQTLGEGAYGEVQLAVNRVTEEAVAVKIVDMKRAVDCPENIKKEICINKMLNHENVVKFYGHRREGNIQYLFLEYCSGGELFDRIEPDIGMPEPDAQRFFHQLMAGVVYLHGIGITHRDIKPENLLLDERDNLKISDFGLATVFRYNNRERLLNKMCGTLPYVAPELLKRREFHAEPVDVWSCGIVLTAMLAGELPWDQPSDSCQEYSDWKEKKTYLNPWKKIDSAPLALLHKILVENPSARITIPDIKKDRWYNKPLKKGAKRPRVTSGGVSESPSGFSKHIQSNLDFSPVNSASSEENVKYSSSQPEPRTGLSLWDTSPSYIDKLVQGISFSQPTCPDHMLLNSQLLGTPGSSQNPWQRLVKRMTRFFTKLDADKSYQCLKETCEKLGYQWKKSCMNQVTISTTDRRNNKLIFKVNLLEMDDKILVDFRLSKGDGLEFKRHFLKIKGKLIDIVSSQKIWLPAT
Text: as §1

T1 sequence (O75914 whole entry): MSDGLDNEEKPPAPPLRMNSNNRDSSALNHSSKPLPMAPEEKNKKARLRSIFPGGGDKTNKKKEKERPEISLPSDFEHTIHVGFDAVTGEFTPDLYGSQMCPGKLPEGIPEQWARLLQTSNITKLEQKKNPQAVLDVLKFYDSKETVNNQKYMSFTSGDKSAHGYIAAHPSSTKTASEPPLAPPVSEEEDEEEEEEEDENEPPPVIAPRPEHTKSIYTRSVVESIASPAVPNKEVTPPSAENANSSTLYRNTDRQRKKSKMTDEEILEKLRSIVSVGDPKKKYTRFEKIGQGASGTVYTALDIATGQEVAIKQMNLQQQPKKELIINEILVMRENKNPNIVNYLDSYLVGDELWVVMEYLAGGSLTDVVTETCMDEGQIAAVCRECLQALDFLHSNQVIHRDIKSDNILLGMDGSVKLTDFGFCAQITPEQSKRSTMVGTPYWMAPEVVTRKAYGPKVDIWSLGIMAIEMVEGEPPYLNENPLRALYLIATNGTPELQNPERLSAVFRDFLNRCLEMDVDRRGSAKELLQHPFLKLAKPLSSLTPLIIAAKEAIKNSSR
T2 sequence (P36507 whole entry): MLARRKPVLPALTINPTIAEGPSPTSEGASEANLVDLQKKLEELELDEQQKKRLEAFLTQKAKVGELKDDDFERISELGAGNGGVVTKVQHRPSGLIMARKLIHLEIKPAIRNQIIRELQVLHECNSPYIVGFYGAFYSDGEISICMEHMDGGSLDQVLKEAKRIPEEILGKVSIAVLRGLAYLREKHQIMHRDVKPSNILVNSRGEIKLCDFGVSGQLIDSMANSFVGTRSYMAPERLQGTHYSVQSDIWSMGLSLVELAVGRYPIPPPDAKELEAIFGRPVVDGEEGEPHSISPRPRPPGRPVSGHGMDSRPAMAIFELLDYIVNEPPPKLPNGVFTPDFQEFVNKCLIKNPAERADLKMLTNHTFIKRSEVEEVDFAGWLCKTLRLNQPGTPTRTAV

COc1cc(C(=O)N2CCC(N3CCN(C)CC3)CC2)ccc1Nc1ncc2c(n1)N(C)c1ccccc1C(=O)N2C [15 (LRRK2-IN-1)]
KINOMEscan: PAK3 [1]: 83
KINOMEscan: MEK2 [2]: 99
KINOMEscan: CHEK1 [3]: 100

COc1cc(C(=O)N2CCC(N3CCN(C)CC3)CC2)ccc1Nc1ncc2c(n1)N1CCc3cccc(c31)C(=O)N2C [Compound 24]
KINOMEscan: PAK3 [1]: 80
KINOMEscan: CHEK1 [3]: 85

COc1cc(C(=O)N2CCC(N3CCN(C)CC3)CC2)ccc1Nc1ncc2c(n1)N(C1CCCC1)c1ccccc1C(=O)N2C [Compound 25, 11-cyclopentyl-2-((2-methoxy-4-(4-(4-methylpiperazin-1-yl)piperidine-1-carbonyl)phenyl)amino)-5-methyl-5H-benzo[e]pyrimido[5,4-b][1,4]diazepin-6(11H)-one]
KINOMEscan: PAK3 [1]: 69
KINOMEscan: MEK2 [2]: 66
KINOMEscan: CHEK1 [3]: 100

CCOc1cc(C(=O)N2CCC(N3CCN(C)CC3)CC2)ccc1Nc1ncc2c(n1)N(C1CCCC1)c1ccccc1C(=O)N2C [Compound 26]
KINOMEscan: PAK3 [1]: 95
KINOMEscan: MEK2 [2]: 89
KINOMEscan: CHEK1 [3]: 100

— paper PMC3914206
